Values after ≈ are worked out from the molar mass of the structure shown.
How the values were obtained:
Type in all cases: functional, cell-based
KB [1] = assay: Reversal of multidrug resistance in vincristine-resistant human KB cells in presence of 0.1 uM vincristine
[2] = Cytotoxicity against vincristine-resistant human KB/VJ300 cells
KB [3] = assay: Reversal of multidrug resistance in vincristine-resistant human KB cells in presence of 0.121 uM vincristine

In the case of `CCOC(=O)[C@@H]1[C@@H](O)[C@@]23C=CCN4CC[C@@]5(c6ccccc6N[C@]15CC2)[C@@H]43` [KOPSILOSCINE J], the IC50 (KB [1]) is reported as 15 µg/mL and the IC50 [2] is reported as > 25 µg/mL.

With `COC(=O)N1c2c(ccc3c2OCO3)[C@@]23CCN4C[C@@H]5O[C@@H]5[C@]5(CC[C@]12[C@](O)(C(=O)OC)[C@@H]5O)[C@H]43` [KOPSIMALINE A] the IC50 (KB [3]) was 3.9 mM and the IC50 [2] was > 25 µg/mL.

In the case of `COC(=O)N1c2c(O)cccc2[C@@]23CCN4C[C@@H]5O[C@@H]5[C@]5(CC[C@]12[C@](O)(C(=O)OC)[C@@H]5O)[C@H]43` [KOPSIMALINE B], the IC50 (KB [1]) is reported as 13 µg/mL and the IC50 [2] is reported as > 25 µg/mL.

For `COC(=O)N1c2c(ccc(OC)c2O)[C@@]23CCN4C[C@@H]5O[C@@H]5[C@]5(CC[C@]12[C@](O)(C(=O)OC)[C@@H]5O)[C@H]43` [KOPSIMALINE C], the IC50 (KB [1]) was 18.2 µg/mL and the IC50 [2] was > 25 µg/mL.

`COC(=O)N1c2c(ccc3c2OCO3)[C@@]23CCN4C[C@@H]5O[C@@H]5[C@@]5([C@@H](O)[C@@](O)(C(=O)OC)[C@@]12C[C@@H]5O)[C@H]43` [KOPSIMALINE D] showed an IC50 (KB [1]) of 9.2 µg/mL and an IC50 [2] of 25 µg/mL (≈ 49.8 µM).

With `COC(=O)N1c2c(OC)cccc2[C@@]23CCN4C[C@@H]5O[C@@H]5[C@]5(CC[C@]12[C@](O)(C(=O)OC)[C@@H]5O)[C@H]43` [KOPSIMALINE E] the IC50 (KB [1]) was 18 µg/mL and the IC50 [2] was > 25 µg/mL.
